From patent EP2364976B1, “S1P receptor modulating compounds and use thereof” (EPIX Pharmaceuticals, Inc., priority 2007, dated 2007)
pEC50: −log10 of the molar value.

What follows are molecules tested against T1, hS1P1 (Homo sapiens, UniProt P21453) (assay: hS1P1 EC50 (S1P receptor Ca2+ flux protocol, FLIPR, CHO K1 Gqi5 cells)). Conditions: several values per compound = repeat determinations as printed.
T1 construct: expressed in transfected cells
Format: cell-based
Summary of the method: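 Calcium flux (FLIPR) in CHO K1 cells stably expressing Gqi5 and N-terminally V5-tagged human S1P1, loaded with calcium dye 90 min at RT. Peak fluorescence recorded 90 s after compound addition (10-point 3x dilution, 0.25% DMSO), normalized to 200 nM S1P (100%) and buffer (0%); EC50 from 4-parameter fit.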

T1 sequence (P21453 whole entry): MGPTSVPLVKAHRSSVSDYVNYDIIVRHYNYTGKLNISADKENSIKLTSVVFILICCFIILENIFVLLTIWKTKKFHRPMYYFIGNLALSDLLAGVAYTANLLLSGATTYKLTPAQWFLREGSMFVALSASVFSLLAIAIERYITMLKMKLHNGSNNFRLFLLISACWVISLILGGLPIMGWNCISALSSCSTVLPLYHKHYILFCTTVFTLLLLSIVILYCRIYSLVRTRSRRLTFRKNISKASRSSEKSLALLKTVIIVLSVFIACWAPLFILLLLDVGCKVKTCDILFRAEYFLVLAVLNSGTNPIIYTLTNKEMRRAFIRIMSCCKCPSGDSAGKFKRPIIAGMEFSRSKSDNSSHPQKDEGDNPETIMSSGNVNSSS

With `Cc1ccc(Cc2ccc3oc(-c4ccc(CN5CC(C(=O)O)C5)cc4F)cc3c2)cc1` [Reference Compound 86, 1-(3-Fluoro-4-(5-(4-methylbenzyl)benzofuran-2-yl)benzyl)azetidine-3-carboxylic acid] as the molecule, how does the pEC50 read?
The pEC50 was 7.92.

`O=C(O)C1CN(Cc2ccc(-n3cc4cc(Cc5ccccc5)ccc4n3)c(F)c2)C1` [Reference Compound 87, 1-(4-(5-Benzyl-2H-indazol-2-yl)-3-fluorobenzyl)azetidine-3-carboxylic acid] was tested. Which pEC50 did it give?
Its pEC50 is 7.03.

How did the pEC50 turn out when `O=C(O)C1(O)CN(Cc2ccc(-c3cc4cc(Cc5ccccc5)ccc4o3)c(F)c2)C1` [Reference Compound 88, 1-((4-(5-Benzylbenzofuran-2-yl)-3-fluorophenyl)methyl)-3-hydroxyazetidine-3-carboxylic acid] was run?
The pEC50 was 6.98.

With `O=C(O)C1(O)CN(Cc2ccc(-c3nc4cc(Cc5ccccc5)ccc4s3)c(F)c2)C1` [Reference Compound 89, 1-((4-(5-Benzylbenzo[d]thiazol-2-yl)-3-fluorophenyl)methyl)-3-hydroxyazetidine-3-carboxylic acid] as the molecule, how does the pEC50 read?
Its pEC50 is 7.57.

How did the pEC50 turn out when `CC(c1ccccc1)c1ccc2oc(-c3ccc(CN4CC(C(=O)O)C4)cc3F)cc2c1` (centres unmarked) [Reference Compound 90, 1-((3-Fluoro-4-(5-(1-phenylethyl)benzofuran-2-yl)phenyl)methyl)azetidine-3-carboxylic acid] was run?
The pEC50 was 7.00.

With `O=C(O)C1CN(Cc2ccc(-c3cc4cc(C(F)(F)c5ccccc5)ccc4o3)c(F)c2)C1` [Reference Compound 91, 1-((4-(5-(Difluoro(phenyl)methyl)benzofuran-2-yl)-3-fluorophenyl)methyl)azetidine-3-carboxylic acid] as the molecule, how does the pEC50 read?
The pEC50 was 7.89.

`O=C(O)C1CN(Cc2ccc(-c3cc4ccc(Cc5ccccc5)cc4o3)c(F)c2)C1` [Reference Compound 92, 1-((4-(6-Benzylbenzofuran-2-yl)-3-fluorophenyl)methyl)azetidine-3-carboxylic acid] was tested. Which pEC50 did it give?
Its pEC50 is 8.15.

With `O=C(O)C1CN(Cc2ccc(-c3cc4cc(Cc5ccccn5)ccc4o3)c(F)c2)C1` [Reference Compound 93, 1-((3-Fluoro-4-(5-(pyridin-2-ylmethyl)benzofuran-2-yl)phenyl)methyl)azetidine-3-carboxylic acid] as the molecule, how does the pEC50 read?
The pEC50 was 7.51.

`O=C(O)C1CN(Cc2ccc(-c3cc4cc(Cc5nccs5)ccc4o3)c(F)c2)C1` [Reference Compound 94, 1-((3-Fluoro-4-(5-(thiazol-2-ylmethyl)benzofuran-2-yl)phenyl)methyl)azetidine-3-carboxylic acid] was tested. Which pEC50 did it give?
Its pEC50 is 7.12.

`O=C(O)C1CN(Cc2cccc(-c3cc4cc(Cc5ccccc5)ccc4o3)c2)C1` [Reference Compound 96, 1-(3-(5-Benzylbenzofuran-2-yl)benzyl)azetidine-3-carboxylic acid] was tested. Which pEC50 did it give?
The pEC50 was 5.32.

How did the pEC50 turn out when `CC(C)(c1ccccc1)c1ccc2oc(-c3ccc(CN4CC(C(=O)O)C4)cc3F)cc2c1` [Reference Compound 97, 1-((3-Fluoro-4-(5-(2-phenylpropan-2-yl)benzofuran-2-yl)phenyl)methyl)azetidine-3-carboxylic acid] was run?
Its pEC50 is 6.44.

How did the pEC50 turn out when `O=C(O)C1CN(Cc2ccc(-c3cc4cc(Cc5ccccc5)ccc4[nH]3)c(F)c2)C1` [Reference Compound 99, 1-((3-Fluoro-4-(5-(phenylmethyl)-1H-indol-2-yl)phenyl)methyl)-3-azetidinecarboxylic acid] was run?
The pEC50 was 5.87.

`O=C(O)C1CN(Cc2ccc(-c3cc4cc(Cc5ncccn5)ccc4o3)c(F)c2)C1` [Reference Compound 100] was tested. Which pEC50 did it give?
The pEC50 was 7.06.

With `O=C(c1ccccc1)c1ccc2oc(-c3ccc(CN4CC(C(=O)O)C4)cc3F)cc2c1` [Reference Compound 102, 1-((4-(5-Benzoylbenzofuran-2-yl)-3-fluorophenyl)methyl)azetidine-3-carboxylic acid] as the molecule, how does the pEC50 read?
Its pEC50 is 7.10.

`O=C(O)C1CN(Cc2ccc(-c3cc4cc(Cc5ccccc5)nc(Cl)c4o3)c(F)c2)C1` [Reference Compound 107, 1-((4-(5-Benzyl-7-chlorofuro[2,3-c]pyridin-2-yl)-3-fluorophenyl)methyl)azetidine-3-carboxylic acid] was tested. Which pEC50 did it give?
Its pEC50 is 5.59.

With `O=C(O)C1CN(Cc2ccc(-c3cc4cc(Cc5ccccc5)ncc4o3)c(F)c2)C1` [Reference Compound 108, 1-((4-(5-Benzylfuro[2,3-c]pyridin-2-yl)-3-fluorophenyl)methyl)azetidine-3-carboxylic acid] as the molecule, how does the pEC50 read?
Its pEC50 is 6.39.

`O=C(O)C1CN(Cc2ccc(-c3cc4nc(Cc5ccccc5)ccc4o3)c(F)c2)C1` [Reference Compound 109, 1-((4-(5-Benzylfuro[3,2-b]pyridin-2-yl)-3-fluorophenyl)methyl)azetidine-3-carboxylic acid] was tested. Which pEC50 did it give?
The pEC50 was 6.39.

`O=C(O)C1CN(Cc2ccc(-c3nc4ccc(Cc5ccccc5)cc4o3)c(F)c2)C1` [Reference Compound 111, 1-((4-(6-Benzylbenzo[d]oxazol-2-yl)-3-fluorophenyl)methyl)azetidine-3-carboxylic acid] was tested. Which pEC50 did it give?
The pEC50 was 8.10.

With `O=C(O)C1CN(Cc2ccc(-c3nc4cc(Cc5ccccc5)ccc4o3)c(F)c2)C1` [Reference Compound 112, 1-((4-(5-Benzylbenzo[d]oxazol-2-yl)-3-fluorophenyl)methyl)azetidine-3-carboxylic acid] as the molecule, how does the pEC50 read?
Its pEC50 is 7.72.

`O=C(O)C1CN(Cc2ccc(-c3nc4cc(Cc5ccccc5)ccc4o3)cc2)C1` [Reference Compound 113, 1-((4-(5-Benzylbenzo[d]oxazol-2-yl)phenyl)methyl)azetidine-3-carboxylic acid] was tested. Which pEC50 did it give?
The pEC50 was 6.44.

With `O=C(O)C1CN(Cc2ccc(-c3nc4ccc(Cc5ccccc5)cc4[nH]3)c(F)c2)C1` [Reference Compound 115, 1-((4-(5-Benzyl-1H-benzo[d]imidazol-2-yl)-3-fluorophenyl)methyl)azetidine-3-carboxylic acid] as the molecule, how does the pEC50 read?
Its pEC50 is 5.31.

How did the pEC50 turn out when `O=C(O)C1CN(Cc2ccc(-c3nc4cc(Oc5ccccc5)ccc4o3)c(F)c2)C1` [Reference Compound 116, 1-((3-Fluoro-4-(5-phenoxybenzo[d]oxazol-2-yl)phenyl)methyl)azetidine-3-carboxylic acid] was run?
Its pEC50 is 7.92.

`O=C(O)C1CN(Cc2ccc(-c3nc4ccc(Cc5ccccc5)cc4s3)c(F)c2)C1` [Reference Compound 118, 1-((4-(6-Benzylbenzo[d]thiazol-2-yl)-3-fluorophenyl)methyl)azetidine-3-carboxylic acid] was tested. Which pEC50 did it give?
Its pEC50 is 6.83.

`O=C(O)C1CN(Cc2cnc(-c3cc4cc(Cc5ccccc5)ccc4o3)nc2)C1` [Reference Compound 121, 1-((2-(5-Benzylbenzofuran-2-yl)pyrimidin-5-yl)methyl)azetidine-3-carboxylic acid] was tested. Which pEC50 did it give?
The pEC50 was 5.88.

How did the pEC50 turn out when `Cc1nc(-c2cc3cc(Cc4ccccc4)ccc3o2)ccc1CN1CC(C(=O)O)C1` [Reference Compound 122, 1-((6-(5-Benzylbenzofuran-2-yl)-2-methylpyridin-3-yl)methyl)azetidine-3-carboxylic acid] was run?
Its pEC50 is 6.38.

How did the pEC50 turn out when `CC(c1ccc(-c2cc3cc(Cc4ccccc4)ccc3o2)c(F)c1)N1CC(C(=O)O)C1` (centres unmarked) [Reference Compound 123, 1-(1-(4-(5-benzylbenzofuran-2-yl)-3-fluorophenyl)ethyl)azetidine-3-carboxylic acid] was run?
Its pEC50 is 6.50.
